According to patent US20070003481A1, “Method and composition to individualize Levodopa/Carbidopa therapy using a breath test” (priority 2005, published 2007):

What was measured:
[1] = biological target: T1, dopamine decarboxylase (DDC) (Homo sapiens, UniProt P20711); experiment: 13CO2 breath test after 13C-labeled LD, with CD pretreatment or simultaneous CD; type: in vivo
T1 construct: from tissue; host or cells: peripheral tissues of living human subjects (liver, kidney, gastrointestinal tract, capillary endothelium)
T1 sequence (P20711 1-480): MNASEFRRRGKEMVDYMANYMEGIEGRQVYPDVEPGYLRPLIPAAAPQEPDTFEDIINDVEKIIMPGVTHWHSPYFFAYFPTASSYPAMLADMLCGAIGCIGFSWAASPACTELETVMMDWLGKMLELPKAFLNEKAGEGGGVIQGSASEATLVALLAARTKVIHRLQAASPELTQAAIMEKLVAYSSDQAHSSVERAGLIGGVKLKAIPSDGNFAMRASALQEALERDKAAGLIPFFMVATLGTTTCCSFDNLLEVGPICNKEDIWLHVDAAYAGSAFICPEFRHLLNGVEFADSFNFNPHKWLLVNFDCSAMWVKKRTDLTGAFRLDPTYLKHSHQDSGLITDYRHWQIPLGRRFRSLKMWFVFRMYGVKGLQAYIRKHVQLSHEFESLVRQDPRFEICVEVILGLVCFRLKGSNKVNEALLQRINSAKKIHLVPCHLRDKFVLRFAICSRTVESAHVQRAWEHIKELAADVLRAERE
Description: ^13CO2 and ^12CO2 in exhaled breath samples is measured by IR spectrometry using the UBiT-IR300 (Meretek Diagnostics, Lafayette, CO; ^13CO2 urea breath analyzer instruction manual. Lafayette, CO: Meretek Diagnostics; 2002; A1-A2)^12 The amount of ^13CO2 present in breath samples is expressed as delta over baseline (DOB) that represents a change in the ^13CO2/^12CO2 ratio of breath samples collected before and after ^13C-labeled DDC enzyme substrate ingestion, e.g., ^13C-labeled LD. [formula]
The amount of ^13C-labeled DDC substrate absorbed and released into the breath as ^13CO2 is determined for each time point using the equation described by Amarri (Amarri et al., Clin Nutr. 14:149-54 (1995)).
The PDR is calculated using the formula: [formula] where ^13δ=[RS/RPDB)−1]×10^3 Rs=^13C:^12C in the sample RPDB=^13C:^12C in PDB (international standard PeeDeeBelemnite)=0.0112372) P is the atom % excess n is the number of labeled carbon positions δt, δ+1, δ0 are enrichments at times t, t+1 and predose respectively C is the CO2 production rate (C=300 [mmol/h]*BSA BSA=w^0.5378*h^0.3963*0.024265 (Body Surface Area) w: Weight (kg) h: Height (cm) Cmax is the highest value of DOB from the breath curve following ^13C-labeled DDC substrate. In one embodiment of the method, the ^13C-labeled DDC substrate is ^13C-labeled LD.
The present studies employed the ^13CO2 breath test method of the present invention to determine the optimal dose of CD required to optimally suppress peripheral metabolism of ^13C-labeled LD in individual subjects (i.e., Vlt 1 and Vlt 2). Briefly, a pre-breath test sample was collected in normal human subjects after overnight fasting (12 h) in a 1.3 L aluminum bag (Otsuka Pharmaceutical Co., Ltd., Tokyo, Japan). Briefly, normal human subjects ingested varying dosages (e.g., 25 mg-200 mg CD) 1 h prior to administration of 100 mg ^13C-labeled LD on three successive days. Breath samples were collected at specified intervals following administration of ^13C-labeled LD to determine peripheral metabolic decarboxylation of the drug. That is, breath samples were collected at 5 minutes intervals for 40 minutes, at 10 minutes intervals to 90 minutes and 120 minutes. Metabolism of ^13C-labeled LD in the absence of CD administration served as control. The results of these studies are summarized FIGS. 5-8. There is a dose response to the inhibition of peripheral DDC enzyme activity by the inhibitor CD.
The present studies examined the effect of CD preadministration on peripheral LD metabolism in human subjects. Briefly, normal human subjects ingested varying dosages (e.g., 25 mg-200 mg CD) either simultaneously, or up to 2 h prior to administration of ^13C-labeled LD. Breath samples were collected at specified intervals following administration of ^13C-labeled LD to determine peripheral metabolic decarboxylation of the ^13C-labeled LD. Metabolism of ^13C-labeled LD in the absence of CD administration served as control. The results of these studies are summarized below in Table 1 as well as FIGS. 9-14.
In Table 1, figures in parenthesis are percent inhibition of DDC by CD. The delta over baseline of ^13CO2 is designated as DOB. The percentage of LD dose recovered as ^13CO2 is designated as PDR. The peak breath concentration of ^13CO2 is designated as Cmax.
Breath samples are collected at 5 min time points up to 40 min and at 10 min intervals to 90 min and at 120 min after ingestion of ^13C-labeled LD. The breath samples are collected by having the subject momentarily holding their breath for 3 seconds prior to exhaling into a sample collection bag. The breath samples are analyzed on a UBiT IR-300 spectrophotometer (Meretek, Denver, Colo.) to determine the ^13CO2/^12CO2 ratio in expired breath, or sent to a reference lab. Optionally, varying doses (10-400 mg) of CD are orally administered to the subject (10 min-6 h) prior to administration of the ^13C-labeleld LD.

[2] = 50 mg oral CD; serum CD time course; good/rapid (N=4) and poor/slow (N=5) absorbers; cited from earlier work
peripheral DDC = biological target: T2, peripheral DDC (Homo sapiens, UniProt P20711); conditions: CD doses used in current clinical practice; cited from earlier work
T2 construct: host or cells: human subjects in vivo (cited study)
T2 sequence (P20711 1-480): T1 sequence (P20711 1-480)

[3] = subject Vlt 1, CD 25 mg 1 h prior to LD
[4] = subject Vlt 1, CD 25 mg simultaneous with LD
[5] = subject Vlt 1, CD 50 mg 1 h prior to LD
[6] = subject Vlt 1, CD 50 mg simultaneous with LD
[7] = subject Vlt 1, CD 100 mg 1 h prior to LD
[8] = subject Vlt 1, CD 100 mg simultaneous with LD
[9] = subject Vlt 2, CD 50 mg 1 h prior to LD
[10] = subject Vlt 2, CD 50 mg simultaneous with LD
[11] = subject Vlt 2, CD 100 mg 1 h prior to LD
[12] = subject Vlt 2, CD 100 mg simultaneous with LD
[13] = subject Vlt 2, CD 200 mg 1 h prior to LD
[14] = subject Vlt 2, CD 200 mg simultaneous with LD

Structure (SMILES): C[C@@](Cc1ccc(O)c(O)c1)(NN)C(=O)O [CD, (−)-L-a-hydrazino-a-methyl-b-(3,4-dihydroxybenzene) propanoic acid monohydrate]
- suppression of peripheral decarboxylation, simultaneous ingestion of CD/LD ([1]; 25 mg or 50 mg dose of CD and 100 mg of LD, simultaneous): did not completely suppress
- suppression of DDC, CD administered 1 h prior to LD dose ([1]; Vlt 1 and Vlt 2): maximal suppression
- inhibition of peripheral DDC enzyme activity, dependence on CD dose ([1]; Vlt 1 and Vlt 2, 25 mg-200 mg CD 1 h prior to 100 mg 13C-labeled LD): dose response
- level of peripheral metabolism of 13C-labeled LD, CD 1 h prior versus 2 h prior to LD ([1]; human subject): no significant difference
- inhibition of peripheral metabolism of 13C-labeled LD, CD prior (1 h or 2 h) compared to simultaneous ([1]; normal human subjects): greater
- peripheral metabolism of 13C-labeled LD versus control level ([1]; normal human subjects, all concentrations of CD tested): significantly inhibited
- DOB20: DOB value at 20 minutes after administration of 13C-labeled LD [1, 3]: 25.8
- PDR40: PDR value at 40 minutes after administration of 13C-labeled LD [1, 3]: 12.7%
- percent inhibition of DDC by CD (Cmax) [1, 3]: 54%
- percent inhibition of DDC by CD (DOB20) [1, 3]: 43%
- percent inhibition of DDC by CD (PDR40) [1, 3]: 57%
- DOB20: DOB value at 20 minutes after administration of 13C-labeled LD [1, 4]: 35.6
- PDR40: PDR value at 40 minutes after administration of 13C-labeled LD [1, 4]: 18.7%
- percent inhibition of DDC by CD (Cmax) [1, 4]: 20%
- percent inhibition of DDC by CD (DOB20) [1, 4]: 22%
- percent inhibition of DDC by CD (PDR40) [1, 4]: 37%
- DOB20: DOB value at 20 minutes after administration of 13C-labeled LD [1, 5]: 6.8
- PDR40: PDR value at 40 minutes after administration of 13C-labeled LD [1, 5]: 3.6%
- percent inhibition of DDC by CD (Cmax) [1, 5]: 88%
- percent inhibition of DDC by CD (DOB20) [1, 5]: 85%
- percent inhibition of DDC by CD (PDR40) [1, 5]: 88%
- DOB20: DOB value at 20 minutes after administration of 13C-labeled LD [1, 6]: 25.5
- PDR40: PDR value at 40 minutes after administration of 13C-labeled LD [1, 6]: 11.7%
- percent inhibition of DDC by CD (Cmax) [1, 6]: 57%
- percent inhibition of DDC by CD (PDR40) [1, 6]: 61%
- DOB20: DOB value at 20 minutes after administration of 13C-labeled LD [1, 7]: 10.6
- PDR40: PDR value at 40 minutes after administration of 13C-labeled LD [1, 7]: 5.3%
- percent inhibition of DDC by CD (Cmax) [1, 7]: 82%
- percent inhibition of DDC by CD (DOB20) [1, 7]: 77%
- percent inhibition of DDC by CD (PDR40) [1, 7]: 82%
- DOB20: DOB value at 20 minutes after administration of 13C-labeled LD [1, 8]: 16.5
- PDR40: PDR value at 40 minutes after administration of 13C-labeled LD [1, 8]: 9.1%
- percent inhibition of DDC by CD (Cmax) [1, 8]: 70%
- percent inhibition of DDC by CD (DOB20) [1, 8]: 64%
- percent inhibition of DDC by CD (PDR40) [1, 8]: 69%
- DOB20: DOB value at 20 minutes after administration of 13C-labeled LD [1, 9]: 12.6
- PDR40: PDR value at 40 minutes after administration of 13C-labeled LD [1, 9]: 8.3%
- percent inhibition of DDC by CD (Cmax) [1, 9]: 48%
- percent inhibition of DDC by CD (DOB20) [1, 9]: 66%
- percent inhibition of DDC by CD (PDR40) [1, 9]: 56%
- DOB20: DOB value at 20 minutes after administration of 13C-labeled LD [1, 10]: 15.4
- PDR40: PDR value at 40 minutes after administration of 13C-labeled LD [1, 10]: 11.0%
- percent inhibition of DDC by CD (Cmax) [1, 10]: 32%
- percent inhibition of DDC by CD (DOB20) [1, 10]: 58%
- percent inhibition of DDC by CD (PDR40) [1, 10]: 41%
- DOB20: DOB value at 20 minutes after administration of 13C-labeled LD [1, 11]: 13.5
- PDR40: PDR value at 40 minutes after administration of 13C-labeled LD [1, 11]: 7.8%
- percent inhibition of DDC by CD (Cmax) [1, 11]: 63%
- percent inhibition of DDC by CD (DOB20) [1, 11]: 63%
- percent inhibition of DDC by CD (PDR40) [1, 11]: 59%
- DOB20: DOB value at 20 minutes after administration of 13C-labeled LD [1, 12]: 26.7
- PDR40: PDR value at 40 minutes after administration of 13C-labeled LD [1, 12]: 14.1%
- percent inhibition of DDC by CD (Cmax) [1, 12]: 27%
- percent inhibition of DDC by CD (DOB20) [1, 12]: 27%
- percent inhibition of DDC by CD (PDR40) [1, 12]: 25%
- DOB20: DOB value at 20 minutes after administration of 13C-labeled LD [1, 13]: 8.8
- PDR40: PDR value at 40 minutes after administration of 13C-labeled LD [1, 13]: 5.7%
- percent inhibition of DDC by CD (Cmax) [1, 13]: 75%
- percent inhibition of DDC by CD (DOB20) [1, 13]: 76%
- percent inhibition of DDC by CD (PDR40) [1, 13]: 70%
- DOB20: DOB value at 20 minutes after administration of 13C-labeled LD [1, 14]: 20.5
- PDR40: PDR value at 40 minutes after administration of 13C-labeled LD [1, 14]: 12.0%
- percent inhibition of DDC by CD (Cmax) [1, 14]: 44%
- percent inhibition of DDC by CD (PDR40) [1, 14]: 36%
- absorption of CD among human subjects [2]: variable
- saturation of peripheral DDC activity (peripheral DDC): not saturated
